# In patent US12331022B2, “Spiropiperidine allosteric modulators of nicotinic acetylcholine receptors” (Merck Sharp & Dohme LLC, priority 2019, dated 2025):
# Like-named read-outs stand apart in the source and are kept apart here.
# Target: T1, human α7 nAChR (Homo sapiens, UniProt P36544)
# T1 construct: host or cells: HEK
# Assay: Automated patch-clamp electrophysiology functional assay (Assay A)
# Assay type: cell-based
# Settings: HEK cell line stably expressing human RIC-3 and human α7, IonFlux HT whole-cell population patch, with or without 40 μM acetylcholine
# How it was run: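 Whole-cell population patch clamp at −60 mV, room temperature, on HEK cells stably co-expressing human α7 and RIC-3; compounds tested at three ascending concentrations per recording, alone (agonism) or with 40 μM acetylcholine (potentiation). Currents normalised to an initial 1 s 40 μM acetylcholine response; EC50 from concentration series.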
# T1 sequence (P36544 23-502): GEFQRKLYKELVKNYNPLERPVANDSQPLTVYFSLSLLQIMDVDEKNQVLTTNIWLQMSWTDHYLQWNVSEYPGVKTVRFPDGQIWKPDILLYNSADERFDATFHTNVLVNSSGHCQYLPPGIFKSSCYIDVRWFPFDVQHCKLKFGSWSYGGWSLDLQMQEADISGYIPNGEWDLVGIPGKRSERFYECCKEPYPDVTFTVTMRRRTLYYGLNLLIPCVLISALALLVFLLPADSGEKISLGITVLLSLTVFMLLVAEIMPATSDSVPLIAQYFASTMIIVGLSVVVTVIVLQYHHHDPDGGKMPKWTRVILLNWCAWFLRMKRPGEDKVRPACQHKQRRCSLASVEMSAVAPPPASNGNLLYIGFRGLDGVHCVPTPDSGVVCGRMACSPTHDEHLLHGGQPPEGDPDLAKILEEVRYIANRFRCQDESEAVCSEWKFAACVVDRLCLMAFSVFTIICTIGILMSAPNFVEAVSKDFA
Structure (SMILES),EC50 (read-out: α7 nAChR EC50),EC50 (read-out: α7 nAChR Potency)
"Cc1cc(C)n(-c2cccc(OC[C@H]3CC34CCN(S(N)(=O)=O)CC4)n2)n1 [Example A20, (1S)-1-({[6-(3,5-dimethyl-1H-pyrazol-1-yl)pyridin-2-yl]oxy}methyl)-6-azaspiro[2.5]octane-6-sulfonamide]",1800 nM,500 to 5000 nM
"COc1ccc(F)c(OCC2C(F)(F)C23CCN(S(N)(=O)=O)CC3)c1 (single isomer, unassigned) [Example A31, 1,1-difluoro-2-[(2-fluoro-5-methoxyphenoxy)methyl]-6-azaspiro[2.5]octane-6-sulfonamide]",,≤ 100 nM
"NS(=O)(=O)N1CCC2(CC1)CC2COc1ccnc(OCC(F)(F)F)c1 (racemic) [Example A32, 1-({[2-(2,2,2-trifluoroethoxy)pyridin-4-yl]oxy}methyl)-6-azaspiro[2.5]octane-6-sulfonamide]",140 nM,100 to 500 nM
"NS(=O)(=O)N1CCC2(CC1)CC2COc1ccc(F)cc1C(F)(F)F (single isomer, unassigned) [Example A7, 1-{[4-fluoro-2-(trifluoromethyl)phenoxy]methyl}-6-azaspiro[2.5]octane-6-sulfonamide]",1200 nM,500 to 5000 nM

# Further lines, results first:
EC50 (read-out: α7 nAChR EC50),EC50 (read-out: α7 nAChR Potency),Structure (SMILES)
1400 nM,500 to 5000 nM,"COc1ccccc1NC(=O)[C@@H]1CC12CCN(S(N)(=O)=O)CC2 [Example B1, (1R)—N-(2-methoxyphenyl)-6-sulfamoyl-6-azaspiro[2.5]octane-1-carboxamide]"
540 nM,500 to 5000 nM,"NS(=O)(=O)N1CCC2(CC1)C(COc1cccnc1OCC(F)(F)F)C2(F)F (single isomer, unassigned) [Example A35, 1,1-difluoro-2-({[2-(2,2,2-trifluoroethoxy)pyridin-3-yl]oxy}methyl)-6-azaspiro[2.5]octane-6-sulfonamide]"
310 nM,100 to 500 nM,"NS(=O)(=O)N1CCC2(CC2COc2cccc(OCC(F)(F)F)n2)C(F)(F)C1 (racemic) [Example A39, 4,4-difluoro-1-({[6-(2,2,2-trifluoroethoxy)pyridin-2-yl]oxy}methyl)-6-azaspiro[2.5]octane-6-sulfonamide]"
